Experiments:
[1] = test system: coxsackie B5 virus; experiment: In vitro CPE assay in mammalian cell culture, B5; assay type: cell-based; conditions: viral cytopathic effect in mammalian cell culture, read-out: B5 inhibition capacity (IC50)
[2] = test system: Enterovirus 30; experiment: In vitro CPE assay in mammalian cell culture, EV30; assay type: cell-based; conditions: viral cytopathic effect in mammalian cell culture, read-out: EV30 inhibition capacity (IC50)
[3] = test system: coxsackie B1 virus; experiment: In vitro CPE assay in mammalian cell culture, B1; assay type: cell-based; conditions: viral cytopathic effect in mammalian cell culture, read-out: B1 inhibition capacity (IC50)
[4] = test system: Enterovirus 68; experiment: In vitro CPE assay in mammalian cell culture, EV68; assay type: cell-based; conditions: Enterovirus D, viral cytopathic effect in mammalian cell culture, read-out: EV68 inhibition capacity (IC50)
[5] = test system: Enterovirus 6; experiment: In vitro CPE assay in mammalian cell culture, EV6; assay type: cell-based; conditions: viral cytopathic effect in mammalian cell culture, read-out: EV6 inhibition capacity (IC50)
[6] = test system: Enterovirus 71; experiment: In vitro CPE assay in mammalian cell culture, EV71; assay type: cell-based; conditions: Enterovirus A, viral cytopathic effect in mammalian cell culture, read-out: EV71 inhibition capacity (IC50)
[7] = test system: polio virus Sabin 1; experiment: organism not typed; assay type: cell-based; conditions: read-out: Polio 1 inhibition capacity (IC50)
[8] = test system: coxsackie B4 virus; experiment: In vitro CPE assay in mammalian cell culture, B4; assay type: cell-based; conditions: Enterovirus B, viral cytopathic effect in mammalian cell culture, read-out: B4 inhibition capacity (IC50)
[9] = test system: coxsackie B2 virus; experiment: In vitro CPE assay in mammalian cell culture, B2; assay type: cell-based; conditions: viral cytopathic effect in mammalian cell culture, read-out: B2 inhibition capacity (IC50)
[10] = in vivo; set-up: species or system Sprague Dawley rats; conditions: male, Sprague Dawley, rat, po, 50 mg/kg
Method: Overnight fasted animals were administered with the test compounds in recommended vehicle 0.4% (v/v) Tween 80+2% (v/v) Glycerol and 15% w/v HPBCD by oral route with a dose of 50 mg/kg body weight at dose volume of 10 mL/kg bw. Under mild isoflurane anesthesia, blood samples were collected into pre-labeled tubes containing anticoagulant (K2EDTA—2 mg/mL blood) during the next 24 hours post dose. Collected blood samples were centrifuged at 4000 rpm, 4° C. for 10 minutes and plasma was separated and stored at −80° C. until analysis.

[11] = test system: coxsackie B3 virus; experiment: In vitro CPE assay in mammalian cell culture, B3; assay type: cell-based; conditions: Enterovirus B, viral cytopathic effect in mammalian cell culture, read-out: B3 inhibition capacity (IC50)

## Cc1cc(NCc2ccc(S(N)(=O)=O)cc2)n2nc(C)c(-c3ccc4c(c3)c(C)nn4C)c2n1 [Example 13, 4-(((3-(1,3-dimethyl-1H-indazol-5-yl)-2,5-dimethylpyrazolo[1,5-a]pyrimidin-7-yl)amino)methyl)benzene-sulfonamide]
[1]
  IC50: < 100 nM
[2]
  IC50: < 100 nM
[3]
  IC50: < 1000 nM
[4]
  IC50: < 1000 nM
[5]
  IC50: < 1000 nM
[6]
  IC50: < 100 nM
[7]
  IC50: < 100 nM
[8]
  IC50: < 100 nM
[9]
  IC50: < 1000 nM
[10]
  AUC(0-inf): 76100 ± 26800 ng·h/mL
  AUC(0-t): 62100 ± 10900 ng·h/mL
  AUCextrap: 14.5 ± 17.1%
  Cmax: 5900 ± 900 ng/mL
  MRT last: 7.5 ± 1.4 h
  Tmax: 2 h
  half-life: 8.2 ± 5.4 h
[11]
  IC50: < 100 nM

## Cc1nc(NCc2ccc(S(N)(=O)=O)cc2)n2nc(C)c(-c3ccc4c(c3)c(C)nn4C)c2n1 [Example 23, 4-(((8-(1,3-dimethyl-1H-indazol-5-yl)-2,7-dimethylpyrazolo[1,5-a][1,3,5]triazin-4-yl)amino)methyl)benzene-sulfonamide]
[1]
  IC50: < 100 nM
[2]
  IC50: < 100 nM
[3]
  IC50: < 100 nM
[4]
  IC50: < 100 nM
[5]
  IC50: < 100 nM
[6]
  IC50: < 10 nM
[7]
  IC50: < 100 nM
[8]
  IC50: < 10 nM
[9]
  IC50: < 100 nM
[11]
  IC50: < 100 nM

## Cc1nc(NCc2ccc(Cl)cc2)n2nc(C)c(-c3ccc4c(c3)c(C)nn4C)c2n1 [Example 24, N-(4-chlorobenzyl)-8-(1,3-dimethyl-1H-indazol-5-yl)-2,7-dimethylpyrazolo[1,5-a][1,3,5]triazin-4-amine]
[1]
  IC50: < 1000 nM
[2]
  IC50: < 100 nM
[3]
  IC50: < 100 nM
[4]
  IC50: < 1000 nM
[5]
  IC50: < 1000 nM
[6]
  IC50: < 100 nM
[7]
  IC50: < 100 nM
[8]
  IC50: < 100 nM
[9]
  IC50: < 100 nM
[11]
  IC50: < 100 nM

## Cc1nc(NCc2ccc(S(C)(=O)=O)cc2)n2nc(C)c(-c3ccc4c(c3)c(C)nn4C)c2n1 [Example 25, 8-(1,3-dimethyl-1H-indazol-5-yl)-2,7-dimethyl-N-(4-(methyl-sulfonyl)benzyl)pyrazolo[1,5-a][1,3,5]triazin-4-amine]
[1]
  IC50: < 10 nM
[2]
  IC50: < 10 nM
[3]
  IC50: < 10 nM
[4]
  IC50: < 10 nM
[5]
  IC50: < 10 nM
[6]
  IC50: < 10 nM
[7]
  IC50: < 1 nM
[8]
  IC50: < 1 nM
[9]
  IC50: < 10 nM
[11]
  IC50: < 10 nM

— patent US11001587B2, “Substituted indazoles as phosphatidylinositol kinase inhibitors” (CUROVIR AB, priority 2017, dated 2021)
